Assay results reported in paper PMC10408569, “Recruitment of hexahydroquinoline as anticancer scaffold targeting inhibition of wild and mutants EGFR (EGFR^WT, EGFR^T790M, and EGFR^L858R)” (Journal of Enzyme Inhibition and Medicinal Chemistry, 2023).

Legend:
SR = experiment: NCI-60 anticancer screening (SRB); format: cell-based; conditions: Homo sapiens, leukemia, one dose 10 μM, read-out: Growth Inhibition Percentage (GI %)
HCT-15 = experiment: NCI-60 anticancer screening (SRB); format: cell-based; conditions: Homo sapiens; HCT-15, colon cancer; one dose 10 μM; read-out: Growth Inhibition Percentage (GI %)
IGROV1 = experiment: NCI-60 anticancer screening (SRB); format: cell-based; conditions: Homo sapiens, IGROV-1; IGROV1, ovarian cancer; one dose 10 μM; read-out: Growth Inhibition Percentage (GI %)
OVCAR-4 = experiment: NCI-60 anticancer screening (SRB); format: cell-based; conditions: Homo sapiens; OVCAR-4, ovarian cancer; one dose 10 μM; read-out: Growth Inhibition Percentage (GI %)
UACC-257 = experiment: NCI-60 anticancer screening (SRB); format: cell-based; conditions: Homo sapiens; UACC-257, melanoma; one dose 10 μM; read-out: Growth Inhibition Percentage (GI %)
SNB-75 = experiment: NCI-60 anticancer screening (SRB); format: cell-based; conditions: Homo sapiens; SNB-75, CNS cancer; one dose 10 μM; read-out: Growth Inhibition Percentage (GI %)
K-562 = experiment: NCI-60 anticancer screening (SRB); format: cell-based; conditions: Homo sapiens, K562; K-562, leukemia; one dose 10 μM; read-out: Growth Inhibition Percentage (GI %)
SK-OV-3 = experiment: NCI-60 anticancer screening (SRB); format: cell-based; conditions: Homo sapiens; SK-OV-3, ovarian cancer; one dose 10 μM; read-out: Growth Inhibition Percentage (GI %)
OVCAR-8 = experiment: NCI-60 anticancer screening (SRB); format: cell-based; conditions: Homo sapiens; OVCAR-8, ovarian cancer; one dose 10 μM; read-out: Growth Inhibition Percentage (GI %)
SK-MEL-28 = experiment: NCI-60 anticancer screening (SRB); format: cell-based; conditions: Homo sapiens; SK-MEL-28, melanoma; one dose 10 μM; read-out: Growth Inhibition Percentage (GI %)
MOLT-4 = experiment: NCI-60 anticancer screening (SRB); format: cell-based; conditions: Homo sapiens; MOLT-4, leukemia; one dose 10 μM; read-out: Growth Inhibition Percentage (GI %)
PC-3 = experiment: NCI-60 anticancer screening (SRB); format: cell-based; conditions: Homo sapiens; PC-3, prostate cancer; one dose 10 μM; read-out: Growth Inhibition Percentage (GI %)
MDA-MB-231 = experiment: NCI-60 anticancer screening (SRB); format: cell-based; conditions: Homo sapiens; MDA-MB-231, breast cancer; one dose 10 μM; read-out: Growth Inhibition Percentage (GI %)
SK-MEL-5 = experiment: NCI-60 anticancer screening (SRB); format: cell-based; conditions: Homo sapiens; SK-MEL-5, melanoma; one dose 10 μM; read-out: Growth Inhibition Percentage (GI %)
A549/ATCC = experiment: NCI-60 anticancer screening (SRB); format: cell-based; conditions: Homo sapiens; A549/ATCC, NSC lung cancer; one dose 10 μM; read-out: Growth Inhibition Percentage (GI %)
MDA-MB-435 = experiment: NCI-60 anticancer screening (SRB); format: cell-based; conditions: Homo sapiens; MDA-MB-435, melanoma; one dose 10 μM; read-out: Growth Inhibition Percentage (GI %)
A498 = experiment: NCI-60 anticancer screening (SRB); format: cell-based; conditions: Homo sapiens; A498, renal cancer; one dose 10 μM; read-out: Growth Inhibition Percentage (GI %)
HOP-62 = experiment: NCI-60 anticancer screening (SRB); format: cell-based; conditions: Homo sapiens; HOP-62, NSC lung cancer; one dose 10 μM; read-out: Growth Inhibition Percentage (GI %)
SW-620 = experiment: NCI-60 anticancer screening (SRB); format: cell-based; conditions: Homo sapiens; SW-620, colon cancer; one dose 10 μM; read-out: Growth Inhibition Percentage (GI %)
NCI 60 cancer cell lines = experiment: NCI-60 anticancer screening (SRB), whole panel; format: cell-based, human; conditions: mean across the NCI-60 panel; one dose 10 μM
HT29 = experiment: NCI-60 anticancer screening (SRB); format: cell-based; conditions: Homo sapiens, HT-29; HT29, colon cancer; one dose 10 μM; read-out: Growth Inhibition Percentage (GI %)
T-47D = experiment: NCI-60 anticancer screening (SRB); format: cell-based; conditions: Homo sapiens, T47D, breast cancer, one dose 10 μM, read-out: Growth Inhibition Percentage (GI %)
HOP-92 = experiment: NCI-60 anticancer screening (SRB); format: cell-based; conditions: Homo sapiens; HOP-92, NSC lung cancer; one dose 10 μM; read-out: Growth Inhibition Percentage (GI %)
CAKI-1 = experiment: NCI-60 anticancer screening (SRB); format: cell-based; conditions: Homo sapiens; CAKI-1, renal cancer; one dose 10 μM; read-out: Growth Inhibition Percentage (GI %)
786-0 = experiment: NCI-60 anticancer screening (SRB); format: cell-based; conditions: Homo sapiens; 786-0, renal cancer; one dose 10 μM; read-out: Growth Inhibition Percentage (GI %)
MALME-3M = experiment: NCI-60 anticancer screening (SRB); format: cell-based; conditions: Homo sapiens, melanoma, one dose 10 μM, read-out: Growth Inhibition Percentage (GI %)
HL-60(TB) = experiment: NCI-60 anticancer screening (SRB); format: cell-based; conditions: Homo sapiens, leukemia, one dose 10 μM, read-out: Growth Inhibition Percentage (GI %)
UACC-62 = experiment: NCI-60 anticancer screening (SRB); format: cell-based; conditions: Homo sapiens; UACC-62, melanoma; one dose 10 μM; read-out: Growth Inhibition Percentage (GI %)
KM 12 = experiment: NCI-60 anticancer screening (SRB); format: cell-based; conditions: Homo sapiens, KM12; KM 12, colon cancer; one dose 10 μM; read-out: Growth Inhibition Percentage (GI %)
M14 = experiment: NCI-60 anticancer screening (SRB); format: cell-based; conditions: Homo sapiens; M14, melanoma; one dose 10 μM; read-out: Growth Inhibition Percentage (GI %)
EKVX = experiment: NCI-60 anticancer screening (SRB); format: cell-based; conditions: Homo sapiens, NSC lung cancer, one dose 10 μM, read-out: Growth Inhibition Percentage (GI %)
NCI-H460 = experiment: NCI-60 anticancer screening (SRB); format: cell-based; conditions: Homo sapiens; NCI-H460, NSC lung cancer; one dose 10 μM; read-out: Growth Inhibition Percentage (GI %)

CCOC(=O)C1=C(N)N(c2ccccc2)C2=C(C(=O)CC(C)(C)C2)C1c1ccc(Cl)cc1 (racemic) [8c, (±)-Ethyl 2-amino-4–(4-chlorophenyl)-7,7-dimethyl-5-oxo-1-phenyl-1,4,5,6,7,8-hexahydroquinoline-3-carboxylate]
melting point: 215 to 217 °C
inhibition at 10 µM (SR): 87%
inhibition at 10 µM (HCT-15): 85%
inhibition at 10 µM (IGROV1): 40%
inhibition at 10 µM (OVCAR-4): 71%
inhibition at 10 µM (UACC-257): 72%
inhibition at 10 µM (SNB-75): 27%
inhibition at 10 µM (K-562): 82%
inhibition at 10 µM (SK-OV-3): 56%
inhibition at 10 µM (OVCAR-8): 39%
inhibition at 10 µM (SK-MEL-28): 56%
inhibition at 10 µM (MOLT-4): 99%
inhibition at 10 µM (PC-3): 78%
inhibition at 10 µM (MDA-MB-231): 47%
inhibition at 10 µM (SK-MEL-5): 72%
inhibition at 10 µM (A549/ATCC): 66%
inhibition at 10 µM (MDA-MB-435): 78%
inhibition at 10 µM (A498): 33%
inhibition at 10 µM (HOP-62): 19%
inhibition at 10 µM (SW-620): 72%
GI % mean (NCI 60 cancer cell lines): 63%
inhibition at 10 µM (HT29): 65%
inhibition at 10 µM (T-47D): 70%
inhibition at 10 µM (HOP-92): 30%
inhibition at 10 µM (CAKI-1): 50%
inhibition at 10 µM (786-0): 33%
inhibition at 10 µM (MALME-3M): 84%
inhibition at 10 µM (HL-60(TB)): 94%
inhibition at 10 µM (UACC-62): 78%
inhibition at 10 µM (KM 12): 82%
inhibition at 10 µM (M14): 72%
inhibition at 10 µM (EKVX): 72%
inhibition at 10 µM (NCI-H460): 87%

CCOC(=O)C1=C(N)N(c2ccc(Cl)cc2)C2=C(C(=O)CC(C)(C)C2)C1c1ccc(Cl)cc1 (racemic) [8e, (±)-Ethyl 2-amino-1,4-bis (4-chlorophenyl)-7,7-dimethyl-5-oxo-1,4,5,6,7,8-hexahydroquinoline-3-carboxylate]
melting point: 220 to 222 °C
inhibition at 10 µM (SR): 52%
inhibition at 10 µM (HCT-15): 58%
inhibition at 10 µM (IGROV1): 12%
inhibition at 10 µM (OVCAR-4): 54%
inhibition at 10 µM (UACC-257): 56%
inhibition at 10 µM (SNB-75): 27%
inhibition at 10 µM (K-562): 63%
inhibition at 10 µM (SK-OV-3): < 10%
inhibition at 10 µM (OVCAR-8): 30%
inhibition at 10 µM (SK-MEL-28): 26%
inhibition at 10 µM (MOLT-4): 89%
inhibition at 10 µM (PC-3): 58%
inhibition at 10 µM (MDA-MB-231): 24%
inhibition at 10 µM (SK-MEL-5): 46%
inhibition at 10 µM (A549/ATCC): 62%
inhibition at 10 µM (MDA-MB-435): 54%
inhibition at 10 µM (A498): < 10%
inhibition at 10 µM (HOP-62): < 10%
inhibition at 10 µM (SW-620): 33%
GI % mean (NCI 60 cancer cell lines): 32%
inhibition at 10 µM (HT29): 46%
inhibition at 10 µM (T-47D): 42%
inhibition at 10 µM (HOP-92): < 10%
inhibition at 10 µM (CAKI-1): 19%
inhibition at 10 µM (786-0): 23%
inhibition at 10 µM (MALME-3M): 39%
inhibition at 10 µM (HL-60(TB)): 62%
inhibition at 10 µM (UACC-62): 28%
inhibition at 10 µM (KM 12): 38%
inhibition at 10 µM (M14): 49%
inhibition at 10 µM (EKVX): 33%
inhibition at 10 µM (NCI-H460): 59%

CCOC(=O)C1=C(N)N(c2ccccc2)C2=C(C(=O)CC(C)(C)C2)C1c1ccc(OC)cc1 (racemic) [8f, (±)-Ethyl2-amino-4–(4-methoxyphenyl)-7,7-dimethyl-5-oxo-1-phenyl-1,4,5,6,7,8-hexahydroquinoline-3-carboxylate]
melting point: 169 to 171 °C
inhibition at 10 µM (SR): 18%
inhibition at 10 µM (HCT-15): < 10%
inhibition at 10 µM (IGROV1): < 10%
inhibition at 10 µM (OVCAR-4): < 10%
inhibition at 10 µM (UACC-257): < 10%
inhibition at 10 µM (SNB-75): < 10%
inhibition at 10 µM (K-562): < 10%
inhibition at 10 µM (SK-OV-3): < 10%
inhibition at 10 µM (OVCAR-8): < 10%
inhibition at 10 µM (SK-MEL-28): < 10%
inhibition at 10 µM (MOLT-4): 14%
inhibition at 10 µM (PC-3): 18%
inhibition at 10 µM (MDA-MB-231): < 10%
inhibition at 10 µM (SK-MEL-5): < 10%
inhibition at 10 µM (A549/ATCC): < 10%
inhibition at 10 µM (MDA-MB-435): < 10%
inhibition at 10 µM (A498): < 10%
inhibition at 10 µM (HOP-62): < 10%
inhibition at 10 µM (SW-620): < 10%
GI % mean (NCI 60 cancer cell lines): - ((-) = GI % mean less than 10)
inhibition at 10 µM (HT29): < 10%
inhibition at 10 µM (T-47D): 11%
inhibition at 10 µM (HOP-92): < 10%
inhibition at 10 µM (CAKI-1): 22%
inhibition at 10 µM (786-0): 11%
inhibition at 10 µM (MALME-3M): < 10%
inhibition at 10 µM (HL-60(TB)): < 10%
inhibition at 10 µM (UACC-62): < 10%
inhibition at 10 µM (KM 12): < 10%
inhibition at 10 µM (M14): < 10%
inhibition at 10 µM (EKVX): < 10%
inhibition at 10 µM (NCI-H460): < 10%

CCOC(=O)C1=C(N)N(c2ccc(C)cc2)C2=C(C(=O)CC(C)(C)C2)C1c1ccc(OC)cc1 (racemic) [8g, (±)-Ethyl 2-amino-4–(4-methoxyphenyl)-7,7-dimethyl-1–(4-methylphenyl)-5-oxo-1,4,5,6,7,8-hexahydroquinoline-3-carboxylate]
melting point: 181 to 183 °C
inhibition at 10 µM (SR): < 10%
inhibition at 10 µM (HCT-15): < 10%
inhibition at 10 µM (IGROV1): < 10%
inhibition at 10 µM (OVCAR-4): < 10%
inhibition at 10 µM (UACC-257): < 10%
inhibition at 10 µM (SNB-75): 13%
inhibition at 10 µM (K-562): < 10%
inhibition at 10 µM (SK-OV-3): < 10%
inhibition at 10 µM (OVCAR-8): < 10%
inhibition at 10 µM (SK-MEL-28): < 10%
inhibition at 10 µM (MOLT-4): < 10%
inhibition at 10 µM (PC-3): < 10%
inhibition at 10 µM (MDA-MB-231): < 10%
inhibition at 10 µM (SK-MEL-5): < 10%
inhibition at 10 µM (A549/ATCC): < 10%
inhibition at 10 µM (MDA-MB-435): < 10%
inhibition at 10 µM (A498): < 10%
inhibition at 10 µM (HOP-62): < 10%
inhibition at 10 µM (SW-620): < 10%
GI % mean (NCI 60 cancer cell lines): - ((-) = GI % mean less than 10)
inhibition at 10 µM (HT29): < 10%
inhibition at 10 µM (T-47D): < 10%
inhibition at 10 µM (HOP-92): < 10%
inhibition at 10 µM (CAKI-1): < 10%
inhibition at 10 µM (786-0): < 10%
inhibition at 10 µM (MALME-3M): < 10%
inhibition at 10 µM (HL-60(TB)): < 10%
inhibition at 10 µM (UACC-62): < 10%
inhibition at 10 µM (KM 12): < 10%
inhibition at 10 µM (M14): < 10%
inhibition at 10 µM (EKVX): < 10%
inhibition at 10 µM (NCI-H460): < 10%
